Measured values published in ChEMBL document CHEMBL4840351 (J Med Chem, 2021).
pIC50: −log10 of the molar value. Activity calls are given as the source filed them. The rule behind the calls is not given here.

Assays:
[1] = Toxicity in CB-17 SCID mouse xenografted with human TMD8 cells assessed as change in body weight at 3.75 to 15 mg/kg, po bid administered for 21 days; type: organism-based; details: in vivo, 504 h, dose 3.75-15 mg/kg, time 21 day
Cytochrome P450 2D6 = Cytochrome P450 2D6 (Homo sapiens, UniProt P10635); assay: Inhibition of CYP2D6 in human liver microsomes using bufuralol as substrate incubated for 10 mins in presence of NADPH by LC-MS/MS analysis; type: ADME
[2] = Volume of distribution in Sprague-Dawley rat at 5 mg/kg, iv measured upto 24 hrs by LC/MS/MS analysis; type: ADME, organism-based; details: in vivo
MOLM-13 = assay: Antiproliferative activity against human MOLM-13 cells assessed as reduction in cell viability incubated for 72 hrs by celltiter-glo assay; details: MOLM-13, 72 h
TMD8 [3] = assay: Induction of apoptosis in human TMD8 cells at 300 nM incubated for 72 hrs by Annexin V-FITC/PI staining based flow cytometric analysis (reference value: 13.4 %); type: functional
[4] = Toxicity in SFP CD-1 mouse assessed as change in body weight at 10 to 1280 mg/kg, po administered for 7 days; type: organism-based; details: in vivo, 168 h, dose 10-1280 mg/kg, time 7 day
[5] = AUC in Sprague-Dawley rat at 5 mg/kg, po measured upto 24 hrs by LC/MS/MS analysis; type: ADME, organism-based; set-up: route oral, dose 5 mg/kg, time <=24; details: in vivo
[6] = Oral bioavailability in Sprague-Dawley rat at 5 mg/kg measured upto 24 hrs by LC/MS/MS analysis; type: ADME, organism-based; details: in vivo
TMD8 [7] = assay: Induction of cell cycle arrest in human TMD8 cells assessed as accumulation of cells at S phase at 3 nM incubated for 48 hrs by PI staining based flow cytometric analysis (reference value: 37.42 %); type: functional
[8] = molecular target: Tyrosine-protein kinase BTK (Homo sapiens, UniProt Q06187, C481S); assay: Inhibition of BTK C481S mutant (unknown origin)
[9] = molecular target: Proto-oncogene tyrosine-protein kinase Src (Homo sapiens, UniProt P12931); assay: Inhibition of SRC (unknown origin)
TMD8 [10] = assay: Antitumor activity against human TMD8 cells xenografted in CB-17 SCID nude mouse assessed as tumor growth inhibition at 15 mg/kg, po bid administered for 21 days; type: functional; details: 504 h, time 21 day, read-out: TGI
[11] = Cmax in CB-17 SCID mouse xenografted with human TMD8 cells at 7.5 mg/kg, po bid administered for 21 days; type: ADME, organism-based; set-up: route oral, dose 7.5 mg/kg, time 21 day; details: in vivo
[12] = AUC(0 to 8 hrs) in CB-17 SCID mouse xenografted with human TMD8 cells at 7.5 mg/kg, po bid administered for 21 days; type: ADME, organism-based; set-up: route oral, time 21 day, dose 7.5 mg/kg; details: in vivo
[13] = molecular target: Epidermal growth factor receptor (Homo sapiens, UniProt P00533); assay: Inhibition of N-terminal DYKDDDD-tagged EGFR (669 to 1210 residues) (unknown origin) expressed in Sf21 insect cells using NH2-ETVYSEVRK-biotin as substrate preincubated for 1 hr followed by ATP addition and measured after 2 hrs by ELISA
[14] = Receptor occupancy at BTK in PBMC of ICR mouse at 15 mg/kg, po after 24 hrs by ELISA; type: functional
TMD8 [15] = assay: Antiproliferative activity against human TMD8 cells assessed as reduction in cell viability incubated for 72 hrs by celltiter-glo assay; details: TMD8, 72 h
[16] = Cmax in ICR mouse at 15 mg/kg, po after 24 hrs; type: ADME, organism-based; set-up: route oral, time 24 hrs, dose 15 mg/kg; details: in vivo
TMD8 [17] = assay: Antitumor activity against human TMD8 cells xenografted in CB-17 SCID nude mouse assessed as tumor growth inhibition at 3.75 mg/kg, po bid administered for 21 days; type: functional; details: 504 h, time 21 day, read-out: TGI
[18] = molecular target: T1, Tyrosine-protein kinase BTK (Homo sapiens, UniProt Q06187); assay: Inhibition of BTK in human TMD8 cells assessed as reduction in PLCgamma2 phosphorylation at Tyr 1217 residue at 0 to 1000 nM after 4 hrs by Western blot analysis; type: cell-based; details: dose 0-1000 nM
Cytochrome P450 3A4 [19] = molecular target: T2, Cytochrome P450 3A4 (Homo sapiens, UniProt P08684); assay: Inhibition of CYP3A4M in human liver microsomes using midazolam as substrate incubated for 10 mins in presence of NADPH by LC-MS/MS analysis; type: ADME
[20] = Toxicity in SFP CD-1 mouse assessed as change in temperature at 10 to 1280 mg/kg, po administered for 7 days; type: organism-based; details: in vivo, 168 h, dose 10-1280 mg/kg, time 7 day
[21] = molecular target: T1, Tyrosine-protein kinase BTK; assay: Inhibition of full-length N-terminal GST tagged BTK (2 to 659 residues) (unknown origin) expressed in Sf21 insect cells using NH2-ETVYSEVRK-biotin as substrate preincubated for 1 hr followed by ATP addition and measured after 2 hrs by ELISA
Cytochrome P450 1A2 = Cytochrome P450 1A2 (Homo sapiens, UniProt P05177); assay: Inhibition of CYP1A2 in human liver microsomes using phenacetin as substrate incubated for 10 mins in presence of NADPH by LC-MS/MS analysis; type: ADME
[22] = molecular target: Tyrosine-protein kinase Tec (Homo sapiens) (UniProt P42680); assay: Inhibition of TEC (unknown origin) at 1 uM relative to control
[23] = Toxicity in SFP CD-1 mouse assessed as change in animal color at 10 to 1280 mg/kg, po administered for 7 days; type: organism-based; details: in vivo, 168 h, dose 10-1280 mg/kg, time 7 day
[24] = Toxicity in SFP CD-1 mouse assessed as mortality at 10 to 1280 mg/kg, po administered for 7 days; type: organism-based; details: in vivo, 168 h, dose 10-1280 mg/kg, time 7 day
[25] = Clearance in Sprague-Dawley rat at 5 mg/kg, iv measured upto 24 hrs by LC/MS/MS analysis; type: ADME, organism-based; details: in vivo
[26] = molecular target: Tyrosine-protein kinase Blk (Homo sapiens, UniProt P51451); assay: Inhibition of BLK (unknown origin)
Cytochrome P450 2C19 = Cytochrome P450 2C19 (Homo sapiens, UniProt P33261); assay: Inhibition of CYP2C19 in human liver microsomes using S-mephenytoin as substrate incubated for 10 mins in presence of NADPH by LC-MS/MS analysis; type: ADME
[27] = Half life in Sprague-Dawley rat at 5 mg/kg, po measured upto 24 hrs by LC/MS/MS analysis; type: ADME, organism-based; details: in vivo
Ramos = assay: Antiproliferative activity against human Ramos cells assessed as reduction in cell viability incubated for 72 hrs by celltiter-glo assay
Cytochrome P450 3A4 [28] = molecular target: T2, Cytochrome P450 3A4; assay: Inhibition of CYP3A4T in human liver microsomes using midazolam as substrate incubated for 10 mins in presence of NADPH by LC-MS/MS analysis; type: ADME
[29] = molecular target: Tyrosine-protein kinase Tec (Homo sapiens, UniProt P42680); assay: Inhibition of TEC (unknown origin)
Chain of Tyrosine-protein kinase Tec (P42680 whole entry): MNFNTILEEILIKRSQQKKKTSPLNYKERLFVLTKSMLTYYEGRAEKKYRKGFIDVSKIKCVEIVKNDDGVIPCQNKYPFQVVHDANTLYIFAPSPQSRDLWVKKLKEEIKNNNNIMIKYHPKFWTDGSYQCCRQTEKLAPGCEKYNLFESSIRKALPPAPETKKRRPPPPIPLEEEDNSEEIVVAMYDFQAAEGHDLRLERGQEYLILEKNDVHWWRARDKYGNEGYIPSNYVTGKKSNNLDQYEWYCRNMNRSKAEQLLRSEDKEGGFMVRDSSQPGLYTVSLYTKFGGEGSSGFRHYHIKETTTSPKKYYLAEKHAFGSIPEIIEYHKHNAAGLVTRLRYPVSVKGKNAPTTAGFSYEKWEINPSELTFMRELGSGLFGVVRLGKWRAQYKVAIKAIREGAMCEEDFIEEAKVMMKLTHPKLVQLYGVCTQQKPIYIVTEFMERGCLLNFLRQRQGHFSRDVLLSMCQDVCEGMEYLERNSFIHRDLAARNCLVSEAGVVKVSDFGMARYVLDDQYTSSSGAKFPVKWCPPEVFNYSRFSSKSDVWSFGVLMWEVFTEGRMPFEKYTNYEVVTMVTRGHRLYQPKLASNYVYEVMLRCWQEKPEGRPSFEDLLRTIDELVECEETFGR

T1 sequence (Q06187 whole entry): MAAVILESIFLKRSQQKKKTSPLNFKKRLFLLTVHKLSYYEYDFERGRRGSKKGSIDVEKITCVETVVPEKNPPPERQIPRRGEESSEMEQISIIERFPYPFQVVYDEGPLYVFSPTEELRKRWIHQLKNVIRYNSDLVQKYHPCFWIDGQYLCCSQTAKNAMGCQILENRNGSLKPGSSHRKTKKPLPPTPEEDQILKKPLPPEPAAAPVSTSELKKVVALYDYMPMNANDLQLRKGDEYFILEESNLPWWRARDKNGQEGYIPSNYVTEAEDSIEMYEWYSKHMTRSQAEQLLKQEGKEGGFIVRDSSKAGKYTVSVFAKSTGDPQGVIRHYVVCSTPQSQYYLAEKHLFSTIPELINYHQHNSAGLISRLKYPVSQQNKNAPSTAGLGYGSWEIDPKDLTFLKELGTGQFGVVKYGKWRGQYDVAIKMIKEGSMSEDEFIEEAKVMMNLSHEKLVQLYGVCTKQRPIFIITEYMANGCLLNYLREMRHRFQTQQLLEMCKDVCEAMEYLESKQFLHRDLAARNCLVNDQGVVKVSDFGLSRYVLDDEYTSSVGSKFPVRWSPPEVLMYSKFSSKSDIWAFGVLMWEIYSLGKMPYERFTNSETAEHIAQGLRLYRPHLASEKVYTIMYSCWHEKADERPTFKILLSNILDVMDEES
T2 sequence (P08684 whole entry): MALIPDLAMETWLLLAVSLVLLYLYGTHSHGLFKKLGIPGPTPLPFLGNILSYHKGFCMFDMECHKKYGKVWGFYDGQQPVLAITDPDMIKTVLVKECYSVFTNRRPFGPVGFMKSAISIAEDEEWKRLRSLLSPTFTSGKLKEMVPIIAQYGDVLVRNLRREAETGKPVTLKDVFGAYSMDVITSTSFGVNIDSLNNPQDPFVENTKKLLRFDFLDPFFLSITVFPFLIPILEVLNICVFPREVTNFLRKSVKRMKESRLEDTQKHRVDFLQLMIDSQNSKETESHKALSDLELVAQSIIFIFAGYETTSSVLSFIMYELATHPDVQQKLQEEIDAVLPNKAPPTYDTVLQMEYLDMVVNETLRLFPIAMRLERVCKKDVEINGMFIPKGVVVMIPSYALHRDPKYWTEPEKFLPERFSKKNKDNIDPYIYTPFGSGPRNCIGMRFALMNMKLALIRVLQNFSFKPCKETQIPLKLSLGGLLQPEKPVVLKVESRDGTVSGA
Chain of Proto-oncogene tyrosine-protein kinase Src (P12931 2-536 limits assumed): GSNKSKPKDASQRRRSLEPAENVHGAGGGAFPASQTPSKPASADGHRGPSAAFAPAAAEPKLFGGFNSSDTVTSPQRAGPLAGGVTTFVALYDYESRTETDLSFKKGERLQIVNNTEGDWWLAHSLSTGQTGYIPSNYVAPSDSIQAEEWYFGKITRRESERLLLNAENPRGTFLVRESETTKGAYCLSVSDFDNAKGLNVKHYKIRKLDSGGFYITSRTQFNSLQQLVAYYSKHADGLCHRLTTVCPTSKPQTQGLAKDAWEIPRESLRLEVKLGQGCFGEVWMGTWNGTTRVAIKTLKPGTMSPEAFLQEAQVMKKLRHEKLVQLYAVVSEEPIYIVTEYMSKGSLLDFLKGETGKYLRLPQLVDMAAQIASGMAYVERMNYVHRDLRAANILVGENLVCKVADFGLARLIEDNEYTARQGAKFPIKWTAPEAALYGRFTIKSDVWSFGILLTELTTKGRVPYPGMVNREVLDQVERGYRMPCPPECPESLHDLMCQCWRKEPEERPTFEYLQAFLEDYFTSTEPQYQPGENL
Chain of Tyrosine-protein kinase Blk (P51451 whole entry): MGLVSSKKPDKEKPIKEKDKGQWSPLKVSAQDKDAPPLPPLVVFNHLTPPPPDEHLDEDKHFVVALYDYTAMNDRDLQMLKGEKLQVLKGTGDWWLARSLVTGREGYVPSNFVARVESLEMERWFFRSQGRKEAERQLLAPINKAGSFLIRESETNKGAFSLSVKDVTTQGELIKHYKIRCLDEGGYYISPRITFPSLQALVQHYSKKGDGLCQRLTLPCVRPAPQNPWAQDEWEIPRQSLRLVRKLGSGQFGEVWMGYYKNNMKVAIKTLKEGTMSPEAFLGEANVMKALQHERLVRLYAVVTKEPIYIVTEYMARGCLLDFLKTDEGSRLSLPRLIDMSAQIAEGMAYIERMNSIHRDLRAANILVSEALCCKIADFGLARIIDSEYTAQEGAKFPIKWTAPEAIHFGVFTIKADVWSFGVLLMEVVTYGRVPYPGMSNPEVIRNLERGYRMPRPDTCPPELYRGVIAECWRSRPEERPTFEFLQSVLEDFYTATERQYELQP
Chain of Tyrosine-protein kinase Tec (Homo sapiens) (P42680 whole entry): as the sequence (P42680 whole entry) above
Chain of Tyrosine-protein kinase BTK (Homo sapiens, UniProt Q06187, C481S) (Q06187 2-659 C481S limits assumed): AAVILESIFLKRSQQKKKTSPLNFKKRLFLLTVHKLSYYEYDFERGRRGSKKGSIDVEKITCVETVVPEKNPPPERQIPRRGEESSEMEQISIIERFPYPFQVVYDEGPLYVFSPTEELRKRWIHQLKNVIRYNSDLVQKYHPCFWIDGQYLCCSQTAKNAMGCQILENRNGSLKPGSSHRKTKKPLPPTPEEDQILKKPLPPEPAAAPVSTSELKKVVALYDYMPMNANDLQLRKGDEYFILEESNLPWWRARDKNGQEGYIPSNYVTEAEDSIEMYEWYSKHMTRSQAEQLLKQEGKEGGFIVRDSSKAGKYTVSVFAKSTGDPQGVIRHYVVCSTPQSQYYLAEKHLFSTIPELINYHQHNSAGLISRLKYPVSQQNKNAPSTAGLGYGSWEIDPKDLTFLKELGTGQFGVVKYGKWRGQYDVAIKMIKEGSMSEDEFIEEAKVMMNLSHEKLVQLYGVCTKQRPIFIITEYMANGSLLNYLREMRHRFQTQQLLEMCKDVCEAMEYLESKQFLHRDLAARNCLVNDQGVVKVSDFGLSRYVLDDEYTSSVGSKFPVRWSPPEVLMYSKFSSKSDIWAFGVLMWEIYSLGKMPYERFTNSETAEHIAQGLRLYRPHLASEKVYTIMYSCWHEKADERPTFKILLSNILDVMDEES
Chain of Cytochrome P450 2C19 (P33261 whole entry): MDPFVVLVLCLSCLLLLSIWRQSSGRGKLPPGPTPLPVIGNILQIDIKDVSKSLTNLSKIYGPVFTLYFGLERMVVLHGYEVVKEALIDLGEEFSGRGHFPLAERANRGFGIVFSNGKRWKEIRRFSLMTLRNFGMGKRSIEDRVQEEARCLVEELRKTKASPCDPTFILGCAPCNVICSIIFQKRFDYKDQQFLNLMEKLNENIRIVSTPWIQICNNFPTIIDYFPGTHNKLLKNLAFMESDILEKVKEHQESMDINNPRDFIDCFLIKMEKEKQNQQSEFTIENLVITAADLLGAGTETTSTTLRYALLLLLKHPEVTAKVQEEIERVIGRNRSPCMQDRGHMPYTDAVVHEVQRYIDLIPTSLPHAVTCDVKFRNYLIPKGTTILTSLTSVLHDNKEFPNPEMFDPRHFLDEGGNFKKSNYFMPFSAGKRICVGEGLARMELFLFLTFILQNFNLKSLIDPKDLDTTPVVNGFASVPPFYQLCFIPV
Chain of Cytochrome P450 1A2 (P05177 whole entry): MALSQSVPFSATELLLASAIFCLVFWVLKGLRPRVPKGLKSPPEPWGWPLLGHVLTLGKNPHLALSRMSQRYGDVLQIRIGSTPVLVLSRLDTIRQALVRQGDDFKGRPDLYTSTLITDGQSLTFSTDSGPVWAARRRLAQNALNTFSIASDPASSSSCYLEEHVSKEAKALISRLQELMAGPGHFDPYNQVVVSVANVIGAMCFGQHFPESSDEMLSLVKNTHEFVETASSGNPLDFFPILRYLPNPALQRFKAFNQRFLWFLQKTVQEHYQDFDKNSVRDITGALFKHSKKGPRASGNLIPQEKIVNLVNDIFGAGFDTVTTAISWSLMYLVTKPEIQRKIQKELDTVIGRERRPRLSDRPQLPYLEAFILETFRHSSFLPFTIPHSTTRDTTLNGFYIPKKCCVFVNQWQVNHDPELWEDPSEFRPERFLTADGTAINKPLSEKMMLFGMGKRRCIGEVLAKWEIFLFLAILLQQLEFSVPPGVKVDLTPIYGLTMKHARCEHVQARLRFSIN

C=CC(=O)N1CCCC[C@H]1c1nc(-c2ccc(C(=O)Nc3cc(C(F)(F)F)ccn3)cc2)c(C(N)=O)n1N
Activity [1]: Non-Toxic | pIC50 (Cytochrome P450 2D6): < 5.00 | Vd [2]: 1.5 L/kg | pIC50 (MOLM-13): 5.43 | Activity (TMD8 [3]): 34.1% | Activity [4]: Non-Toxic | AUC at 24 h [5]: 2000 ng·h/mL | bioavailability [6]: 31.4% | Activity (TMD8 [7]): 37.86% | pIC50 [8]: < 5.00 | inhibition (INH) [9]: Not Active | inhibition in vivo at 15 mg/kg (TMD8 [10]): 106% | Cmax [11]: 1000 ng/mL | AUC at 504 h [12]: 1780 ng·h/mL | pIC50 [13]: 6.36 | Occ [14]: 91% | pIC50 (TMD8 [15]): 7.60 | Cmax [16]: 2380 nM | inhibition in vivo at 3.75 mg/kg (TMD8 [17]): 81% | inhibition [18]: Active | pIC50 (Cytochrome P450 3A4 [19]): < 5.00 | Activity [20]: Non-Toxic | pIC50 [21]: 8.57 | pIC50 (Cytochrome P450 1A2): < 5.00 | inhibition [22]: > 80% | Activity [23]: Non-Toxic | Activity [24]: Non-Toxic | clearance [25]: 13.4 mL/min/kg | pIC50 [26]: 6.77 | pIC50 (Cytochrome P450 2C19): < 5.00 | half-life [27]: 1.35 h | pIC50 (Ramos): 5.60 | pIC50 (Cytochrome P450 3A4 [28]): < 5.00 | pIC50 [29]: 7.80
